Test results taken from patent US20260014119A1, “EMOPAMIL-BINDING PROTEIN INHIBITORS AND USES THEREOF” (BIOGEN MA INC., priority 2022, published 2026).
pIC50: −log10 of the molar value.

Target: T1, EBP (Homo sapiens, UniProt Q15125)
T1 construct: HEK293T cells were utilized as the source of EBP enzyme; endogenous in cells; host or cells: HEK293T
Experiment: EBP Functional Assay (EBP immunoaffinity LC-MS assay)
Format: biochemical
Details: EBP enzyme from HEK293T cells; 30 min with inhibitor, then zymosterol-d5 at 37° C. for 4 h; percent conversion by LC-APCI MRM MS
Experimental: The EBP immunoaffinity (IA) LC-MS assay measures the potency of small molecule inhibitors of EBP by quantifying their concentration-dependent changes in the enzyme's substrate and product using liquid chromatography atmospheric pressure chemical ionization multiple reaction monitoring mass spectrometry (LC-APCI MRM MS). HEK293T cells were utilized as the source of EBP enzyme. The enzyme was incubated with the small molecule inhibitors at variable concentrations for 30 min. Deuterated form of EBP substrate, zymosterol-d5 (Avanti Polar Lipids, Cat #700068P-1 mg), was then added and the plate was incubated at 37° C. for 4 h. Finally, the sterol isomers were extracted and injected to LC-APCI MRM MS. MRM transition used for the quantification for both zymosterol and […] (substrate and product of EBP enzymatic reaction, respectively) is 372.3-203.2, CE 30 and DP 80 in positive ion mode. Percent conversion of the zymosterol-d5 to dehydrolathosterol-d5 was used to derive IC50 curves. Tasin-1 (1′-[(4-Methoxyphenyl)sulfonyl]-4-methyl-1,4′-bipiperidine, CAS 792927-06-1) was used as the reference small molecule inhibitor.
Percent conversion versus the compound concentration data were fit to the following 4-parameter logistic model to generate IC50 curves: […]

T1 sequence (Q15125 whole entry): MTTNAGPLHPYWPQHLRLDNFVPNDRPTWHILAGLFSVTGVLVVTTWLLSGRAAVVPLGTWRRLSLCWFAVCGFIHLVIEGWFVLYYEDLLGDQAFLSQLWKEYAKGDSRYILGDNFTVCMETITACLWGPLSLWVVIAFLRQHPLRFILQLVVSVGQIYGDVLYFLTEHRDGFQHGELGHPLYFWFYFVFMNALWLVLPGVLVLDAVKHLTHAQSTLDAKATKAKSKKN

Structure (SMILES)	pIC50
O=S(=O)(c1ccc(OC(F)F)cc1)N1C[C@H]2C[C@@H](NCC3CCOCC3)C[C@H]2C1 [Example 2, (3aR,5r,6aS)-2-((4-(Difluoromethoxy)phenyl)sulfonyl)-N-((tetrahydro-2H-pyran-4-yl)methyl)octahydrocyclopenta[c]pyrrol-5-amine]	6.30 to 7.00
Cc1ccc(S(=O)(=O)N2C[C@H]3C[C@H](N4CCC(C)CC4)C[C@H]3C2)c(C)c1 [Example 3, (3aR,5s,6aS)-2-((2,4-Dimethylphenyl)sulfonyl)-5-(4-methylpiperidin-1-yl)octahydrocyclopenta[c]pyrrole]	> 7.00
CC1CCN([C@H]2C[C@@H]3CN(S(=O)(=O)c4ccc(OC(F)F)cc4)C[C@@H]3C2)CC1 [Example 4, (3aR,5s,6aS)-2-((4-(Difluoromethoxy)phenyl)sulfonyl)-5-(4-methylpiperidin-1-yl)octahydrocyclopenta[c]pyrrole]	6.30 to 7.00
Cc1ccc(S(=O)(=O)N2C[C@H]3C[C@@H](N4CCC(C)CC4)C[C@H]3C2)c(C)c1 [Example 5, (3aR,5r,6aS)-2-((2,4-Dimethylphenyl)sulfonyl)-5-(4-methylpiperidin-1-yl)octahydrocyclopenta[c]pyrrole]	> 7.00
CC1CCN([C@@H]2C[C@@H]3CN(S(=O)(=O)c4ccc(OC(F)F)cc4)C[C@@H]3C2)CC1 [Example 6, (3aR,5r,6aS)-2-((4-(Difluoromethoxy)phenyl)sulfonyl)-5-(4-methylpiperidin-1-yl)octahydrocyclopenta[c]pyrrole]	6.30 to 7.00
Cc1ccc(S(=O)(=O)N2C[C@H]3C[C@H](NCC4CCOCC4)C[C@H]3C2)c(C)c1 [Example 7, (3aR,5s,6aS)-2-((2,4-Dimethylphenyl)sulfonyl)-N-((tetrahydro-2H-pyran-4-yl)methyl)octahydrocyclopenta[c]pyrrol-5-amine]	> 7.00
O=S(=O)(c1ccc(OC(F)F)cc1)N1C[C@H]2C[C@H](NCC3CCOCC3)C[C@H]2C1 [Example 8, (3aR,5s,6aS)-2-((4-(Difluoromethoxy)phenyl)sulfonyl)-N-((tetrahydro-2H-pyran-4-yl)methyl)octahydrocyclopenta[c]pyrrol-5-amine]	6.30 to 7.00
COc1ncc(C)cc1S(=O)(=O)N1C[C@H]2C[C@H](NCC3CCOCC3)C[C@H]2C1 [Example 9, (3aR,5s,6aS)-2-((2-Methoxy-5-methylpyridin-3-yl)sulfonyl)-N-((tetrahydro-2H-pyran-4-yl)methyl)octahydrocyclopenta[c]pyrrol-5-amine]	6.30 to 7.00
Cc1cc(C)c(S(=O)(=O)N2C[C@H]3C[C@H](NCC4CCOCC4)C[C@H]3C2)cn1 [Example 10, (3aR,5s,6aS)-2-((4,6-Dimethylpyridin-3-yl)sulfonyl)-N-((tetrahydro-2H-pyran-4-yl)methyl)octahydrocyclopenta[c]pyrrol-5-amine]	< 6.30
Cn1nc(C2CC2)cc1S(=O)(=O)N1C[C@H]2C[C@H](NCC3CCOCC3)C[C@H]2C1 [Example 12, (3aR,5s,6aS)-2-((3-Cyclopropyl-1-methyl-1H-pyrazol-5-yl)sulfonyl)-N-((tetrahydro-2H-pyran-4-yl)methyl)octahydrocyclopenta[c]pyrrol-5-amine]	6.30 to 7.00
O=S(=O)(c1ccc(OC(F)F)cc1)N1C[C@H]2C[C@H](N3CCOCC3)C[C@H]2C1 [Example 13, 4-((3aR,5r,6aS)-2-((4-(Difluoromethoxy)phenyl)sulfonyl)octahydrocyclopenta[c]pyrrol-5-yl)morpholine]	< 6.30
O=S(=O)(c1ccc(OC(F)F)cc1)N1C[C@H]2C[C@H](NC3COC3)C[C@H]2C1 [Example 14, (3aR,5s,6aS)-2-((4-(Difluoromethoxy)phenyl)sulfonyl)-N-(oxetan-3-yl)octahydrocyclopenta[c]pyrrol-5-amine]	< 6.30
O=S(=O)(c1ccc(OC(F)F)cc1)N1C[C@H]2C[C@H](NC3CCOC3)C[C@H]2C1 (stereo partly drawn) [Example 15, (3aR,5s,6aS)-2-((4-(Difluoromethoxy)phenyl)sulfonyl)-N-(tetrahydrofuran-3-yl)octahydrocyclopenta[c]pyrrol-5-amine]	6.30 to 7.00
O=S(=O)(c1ccc(OC(F)F)cc1)N1C[C@H]2C[C@H](NC3CCOCC3)C[C@H]2C1 [Example 16, (3aR,5s,6aS)-2-((4-(Difluoromethoxy)phenyl)sulfonyl)-N-(tetrahydro-2H-pyran-4-yl)octahydrocyclopenta[c]pyrrol-5-amine]	> 7.00
CN(CC1CCOCC1)[C@H]1C[C@@H]2CN(S(=O)(=O)c3ccc(OC(F)F)cc3)C[C@@H]2C1 [Example 17, (3aR,5s,6aS)-2-((4-(Difluoromethoxy)phenyl)sulfonyl)-N-methyl-N-((tetrahydro-2H-pyran-4-yl)methyl)octahydrocyclopenta[c]pyrrol-5-amine]	6.30 to 7.00
O=S(=O)(c1ccc(OC(F)F)cc1)N1C[C@H]2C[C@H](NC3CC4(COC4)C3)C[C@H]2C1 [Example 19, (3aR,5s,6aS)-2-((4-(Difluoromethoxy)phenyl)sulfonyl)-N-(2-oxaspiro[3.3]heptan-6-yl)octahydrocyclopenta[c]pyrrol-5-amine]	6.30 to 7.00
Cn1nc(C2CC2)cc1S(=O)(=O)N1C[C@H]2C[C@H](NC3CC4(COC4)C3)C[C@H]2C1 [Example 20, (3aR,5s,6aS)-2-((3-Cyclopropyl-1-methyl-1H-pyrazol-5-yl)sulfonyl)-N-(2-oxaspiro[3.3]heptan-6-yl)octahydrocyclopenta[c]pyrrol-5-amine]	6.30 to 7.00
Cn1nc(C2CC2)cc1S(=O)(=O)N1C[C@H]2C[C@H](NCC3(C)COC3)C[C@H]2C1 [Example 21, (3aR,5s,6aS)-2-((3-Cyclopropyl-1-methyl-1H-pyrazol-5-yl)sulfonyl)-N-((3-methyloxetan-3-yl)methyl)octahydrocyclopenta[c]pyrrol-5-amine]	> 7.00
Cc1nc(C(F)(F)F)ccc1S(=O)(=O)N1C[C@H]2C[C@H](N(C)CC3CCOCC3)C[C@H]2C1 [Example 23, (3aR,5s,6aS)-N-Methyl-2-((2-methyl-6-(trifluoromethyl)pyridin-3-yl)sulfonyl)-N-((tetrahydro-2H-pyran-4-yl)methyl)octahydrocyclopenta[c]pyrrol-5-amine]	> 7.00
Cc1nc(C(F)(F)F)ccc1S(=O)(=O)N1C[C@H]2C[C@H](NCC3CCOCC3)C[C@H]2C1 [Example 27, (3aR,5s,6aS)-2-((2-Methyl-6-(trifluoromethyl)pyridin-3-yl)sulfonyl)-N-((tetrahydro-2H-pyran-4-yl)methyl)octahydrocyclopenta[c]pyrrol-5-amine]	> 7.00
Cc1nc(C(F)(F)F)ccc1S(=O)(=O)N1C[C@H]2C[C@H](NC3CCOCC3)C[C@H]2C1 [Example 28, (3aR,5s,6aS)-2-((2-Methyl-6-(trifluoromethyl)pyridin-3-yl)sulfonyl)-N-(tetrahydro-2H-pyran-4-yl)octahydrocyclopenta[c]pyrrol-5-amine]	> 7.00
Cc1nc(C(F)(F)F)ccc1S(=O)(=O)N1C[C@H]2C[C@H](NCC3(C)COC3)C[C@H]2C1 [Example 29, (3aR,5s,6aS)-2-((2-Methyl-6-(trifluoromethyl)pyridin-3-yl)sulfonyl)-N-((3-methyloxetan-3-yl)methyl)octahydrocyclopenta[c]pyrrol-5-amine]	> 7.00
Cc1nc(C(F)(F)F)ccc1S(=O)(=O)N1C[C@H]2C[C@H](NC3CC4(COC4)C3)C[C@H]2C1 [Example 30, (3aR,5s,6aS)-2-((2-Methyl-6-(trifluoromethyl)pyridin-3-yl)sulfonyl)-N-(2-oxaspiro[3.3]heptan-6-yl)octahydrocyclopenta[c]pyrrol-5-amine]	6.30 to 7.00
Cc1cc(S(=O)(=O)N2C[C@H]3CN(C4CCOCC4)C[C@H]3C2)n(C)n1 [Example 31, (3aR,6aS)-2-((1,3-dimethyl-1H-pyrazol-5-yl)sulfonyl)-5-(tetrahydro-2H-pyran-4-yl)octahydropyrrolo[3,4-c]pyrrole]	6.30 to 7.00
Cc1cc(C)c(S(=O)(=O)N2CC3CN(C4CCOCC4)CC3C2)c(C)c1 (stereo not shown) [Example 32, 2-(Mesitylsulfonyl)-5-(tetrahydro-2H-pyran-4-yl)octahydropyrrolo[3,4-c]pyrrole]	> 7.00
N#Cc1cc(F)cc(S(=O)(=O)N2C[C@H]3CN(C4CCOCC4)C[C@H]3C2)c1 [Example 33, 3-Fluoro-5-(((3aR,6aS)-5-(tetrahydro-2H-pyran-4-yl)hexahydropyrrolo[3,4-c]pyrrol-2(1H)-yl)sulfonyl)benzonitrile]	< 6.30
COc1ccc(S(=O)(=O)N2C[C@H]3CN(C4CCOCC4)C[C@H]3C2)c(C)n1 [Example 34, (3aR,6aS)-2-((6-Methoxy-2-methylpyridin-3-yl)sulfonyl)-5-(tetrahydro-2H-pyran-4-yl)octahydropyrrolo[3,4-c]pyrrole]	> 7.00
Cc1nc(C(F)(F)F)ccc1S(=O)(=O)N1C[C@H]2CN(C3CCOCC3)C[C@H]2C1 [Example 35, (3aR,6aS)-2-((2-Methyl-6-(trifluoromethyl)pyridin-3-yl)sulfonyl)-5-(tetrahydro-2H-pyran-4-yl)octahydropyrrolo[3,4-c]pyrrole]	> 7.00
